Measurements taken from US9795588B2, “Mammalian TOR inhibitor” (Chang Gung University, priority 2016, dated 2017).

How the values were obtained:
[1] = system: Mouse adipocytes (3T3-L1); assay: Adipocyte differentiation, oil-red O staining; assay type: cell-based; settings: 3T3-L1 co-treated with DMI, 8 days, FIG. 6
Experimental: Mouse adipocytes (3T3-L1) were co-treated with DMI (5 μM of dexamethasone, 0.5 mM of 3-isobutyl-1-methylxanthine, and 0.1724 mM of insulin) and different chemicals. After being cultured for 8 days, the cell media was removed and oil-red O staining was used to analyze these adipocytes' differentiation.

[2] = system: yeast cells; assay: Replicative life span of yeast cells (passage number); assay type: cell-based; settings: YEPD media, 30° C.; FIG. 2
Experimental: A yeast colony was selected and cultured in a YEPD culture media. When the OD value of the media was at 0.6-0.8, 20 μl of the media containing different chemicals was added to a YEPD solid media, and then 20-30 yeast cells were selected using a tetrad dissection microscope manipulation system. The selected yeast cells were cultured at 30° C. for 3-5 hours to divide into first generation yeast cells. Afterwards, the first generation yeast cells were cultured at 30° C. for 3-5 hours to divide into second generation yeast cells. The culturing step was repeated until final generation yeast cells which cannot divide anymore existed. Finally, the yeast cells' passage number was counted according to the total division number.

[3] = system: human umbilical vein endothelial cells (HUVEC); assay: SA-βgal cellular aging assay in HUVEC; assay type: cell-based; settings: corylin in different concentrations, successive generations, FIG. 3
Experimental: In addition, human umbilical vein endothelial cells (HUVEC) were treated with corylin in different concentrations, and the cells at this moment were called first generation cells. Second generation cells grew by culturing the first generation cells for 2-3 days, and then the second generation cells were treated with corylin in different concentrations. Third to Nth generation cells grew by repeating the culturing process. During each culture process, SA-βgal assay was used to analyze the responding generation cells. The more SA-βgal positive cells the cultured cells contained, the older the cultured cells were.

[4] = system: S6K phosphorylation; assay: S6K phosphorylation by Western blotting in U2OS cells; assay type: cell-based, human; settings: 8 hours
Experimental: Human osteosarcoma (U2OS) cells were treated with different chemicals in different concentrations. After the cells were cultured for 8 hours, the protein therein was extracted. Finally, Western blotting assay was used to analyze the extracted protein. […] Moreover, human osteosarcoma cells were pre-treated with mammalian SIRT1 inhibitor EX-527 for 1 hour. Afterwards, those cells were treated with 100 μM corylin and cultured for 8 hours. Finally, Western blotting assay was used to analyze the protein extracted from those cells.

[5] = system: S6K phosphorylation caused by insulin; assay: Insulin-induced S6K phosphorylation by Western blotting; assay type: cell-based; settings: human osteosarcoma cells, 400 nM insulin, 10 minutes; FIG. 7
Experimental: High concentration insulin can cause phosphorylation and thus cells are resistant to insulin, which is one cause for type II diabetes. In order to mimic type II diabetes, human osteosarcoma cells were cultured in 400 nM of insulin and different chemicals for 10 minutes. After which, Western blotting assay was used to analyze the protein in these cells.

[6] = system: ICAM-1 expression; assay: Lipopolysaccharide-induced ICAM-1 expression by Western blotting in HASMC; assay type: cell-based, human; settings: corylin 24 hours then lipopolysaccharide 24 hours, FIG. 8
Experimental: Lipopolysaccharide can induce immune response on blood vessels. During immune response, blood vessels can also overexpress ICAM-1, which is one cause of cardiovascular disease. To mimic this disease, human aortic smooth muscle cells (HASMC) were treated with corylin in different concentrations and then cultured for 24 hours. After these cells were treated with lipopolysaccharide for 24 hours, the protein in these cells was extracted and analyzed by Western blotting assay.

[7] = system: Male C57BL/6 mice on high-fat diet; assay: High-fat diet mice: body, liver and white adipocytes tissue weights; assay type: in vivo, mouse; settings: HFD mice, gavage 100 mg/kg, end of treatment
Experimental: (§1) Male C57BL/6 mice (8 weeks old) were purchased from the National Laboratory Animal Center. Mice were divided into three groups (n=6 each group): chow diet; high-fat diet (HFD, 60% ResearchDiet, D12492); and HFD gavage with corylin at 100 mg/kg. To compare the metabolic effects of corylin, parameters such as body weights, liver weights and white adipocytes tissue (WAT) weights from epididymal, inguinal and axilla subcutaneous were measured at the end of the treatment.

[8] = system: Male C57BL/6 mice on high-fat diet; assay: Intraperitoneal glucose tolerance testing in mice; assay type: in vivo, mouse; settings: mice fasted 16 hours, 2 g/kg glucose, 0-120 min; FIG. 12
Experimental: as §1, with “treatment. […] For intraperitoneal glucose tolerance testing, mice were fasted for 16 hours and then injected with 2 g/kg of glucose solution. For insulin tolerance testing, mice were fasted for 3 hours and then injected with 1.2 U/kg insulin. Serum blood glucose levels were measured at 0, 15, 30, 60, 90, and 120 min after glucose and insulin injection.” for “treatment.”

[9] = system: Male C57BL/6 mice on high-fat diet; assay: Insulin tolerance testing in mice; assay type: in vivo, mouse; settings: mice fasted 3 hours, 1.2 U/kg insulin, 0-120 min; FIG. 13
Experimental: as §1, with “treatment. […] For intraperitoneal glucose tolerance testing, mice were fasted for 16 hours and then injected with 2 g/kg of glucose solution. For insulin tolerance testing, mice were fasted for 3 hours and then injected with 1.2 U/kg insulin. Serum blood glucose levels were measured at 0, 15, 30, 60, 90, and 120 min after glucose and insulin injection.” for “treatment.”

Compound	inhibition of adipocytes' differentiation [1]	yeast cells' passage number (replicative life span) [2]	cells' aging (SA-βgal positive cells) [3]	interference of SIRT1 inhibitor EX-527 with corylin's effect on S6K phosphorylation ([4]; U2OS cells pre-treated with EX-527 for 1 hour, then 100 μM corylin, FIG. 5)	S6K phosphorylation ([4]; U2OS cells, different concentrations, FIG. 4)	S6K phosphorylation caused by insulin [5]	ICAM-1 expression caused by lipopolysaccharide [6]	body weight ([7]; FIG. 9)	liver weight ([7]; FIG. 10)	intraperitoneal glucose tolerance (serum blood glucose) [8]	insulin tolerance (serum blood glucose) [9]
Oc1ccc(C=Cc2cc(O)cc(O)c2)cc1 [resveratrol, reference compound]	inhibition of adipocytes' differentiation										
corylin	more obvious than that caused by resveratrol	can increase yeast cells' passage number	can inhibit the cells' aging in dose-dependent manner	cannot interfere with the S6K phosphorylation caused by corylin	can suppress S6K phosphorylation in dose-dependent manner	can suppress such phosphorylation caused by insulin	can inhibit ICAM-1 expression caused by lipopolysaccharide	has an effect on the reduction of body weight	has an effect on the reduction of	can lower intraperitoneal glucose tolerance	can lower
